We go through 2 molecules from patent publication US7173004B2, “Macrocyclic isoquinoline peptide inhibitors of hepatitis C virus” (Bristol-Myers Squibb Company, priority 2003, dated 2007).

Assay [1] deals with T1, HCV NS3/4A protease complex, H77C strain (1a genotype) (Hepatitis C virus genotype 1a, UniProt P27958, C1454S).
T1 construct: DNA encoding the recombinant HCV NS3/4A protease complex (amino acids 1027 to 1711) for these strains; His tag (inferred from Ni-NTA purification and pET21b vector); made in house; host or cells: Escherichia coli BL21 (DE3)
In words: Recombinant HCV NS3/4A protease complex FRET peptide assay, H77C strain. The assay is classed as biochemical. From the text:
Recombinant HCV NS3/4A Protease Complex FRET Peptide Assay
The purpose of this in vitro assay was to measure the inhibition of HCV NS3 protease complexes, derived from the BMS strain, H77C strain or J416S strain, as described below, by compounds of the present invention. This assay provides an indication of how effective compounds of the present invention would be in inhibiting HCV proteolytic activity.
Serum from an HCV-infected patient was obtained from Dr. T. Wright, San Francisco Hospital. An engineered full-length cDNA (compliment deoxyribonucleic acid) template of the HCV genome (BMS strain) was constructed from DNA fragments obtained by reverse transcription-PCR (RT-PCR) of serum RNA (ribonucleic acid) and using primers selected on the basis of homology between other genotype 1a strains. From the determination of the entire genome sequence, a genotype 1a was assigned to the HCV isolate according to the classification of Simmonds et al. (See P Simmonds, K A Rose, S Graham, S W Chan, F McOmish, B C Dow, E A Follett, P L Yap and H Marsden, J. Clin. Microbiol., 31(6), 1493–1503 (1993)). […]

In another assay the test system is HCV replicon. In words: Two-drug combination studies in HCV replicon system, combination index (Chou). The assay is classed as cell-based. To be noted: for EC50: monotherapy, NS3 protease inhibitor = compound 28, read-out: NS3 protease inhibitor EC50. The text has this: Since clinical drug resistance often develops in viral infections following single-agent therapies, there is a need to assess the additive, antagonistic, or synergistic properties of combination therapies. We used the HCV replicon system, as described above, to assess the potential use of our NS3 protease macrocyclic inhibitor in combination therapies with Intron A and inhibitors targeting other HCV proteins. Three HCV antivirals, Intron A (recombinant Interferon alfa-2b) an HCV NS5A inhibitor having the following structure:
In addition, compound 28 was also tested in 3-drug combinations with the NS5A and NS5B inhibitors.
For the experiments shown in Tables 8 and 9, inhibitors were tested at eleven concentrations each. 200× stock solutions of each inhibitor concentration were prepared by 2- or 3-fold dilution in DMSO prior to addition to cells/media. The drugs were tested as monotherapies and in combination with the NS3 protease inhibitor at various concentration ratios. Cells were exposed to compounds for 4 days and the amount of HCV inhibition was then determined using the FRET assay. The potential cytotoxicities of these combined agents were also analyzed in parallel by Alamar Blue staining. […] The degree of antagonism, additivity, or synergy was determined over a range of drug concentrations, and combination response curves were fit to assess the antiviral effects of the drug treatment combinations. The concentration ratios were analyzed using the method of Chou (Chou, Ting-Chao, and Rideout (Editors), (1991) Synergism and Antagonism in Chemotherapy, P. 61–101, Academic Press, New York). Tables 8 and 9 report the estimated EC50 values for the compounds tested, as well as the combination indices (CI). All estimates were computed using SAS Proc NLIN, and a two-parameter logistic. All combination indices were tested for departure from additivity using isobologram methods. Asymptotic confidence intervals were also calculated for each of the combination indices. These intervals are used to test for departure from additivity by comparing the bounds to one—a lower bound of the interval greater than 1 indicates antagonism, an upper bound of less than 1 indicates synergism, and a value of 1 contained in the interval indicates additivity.
Background: In antiviral work, replicon cells carry a viral genome segment that copies itself.

Setting [2] is: 75, 90 and 95% effective doses, two experiments.

Entries after “also recorded” stand apart in the source; their conditions may differ. Read-outs that look alike come from different tables or passages of the source.

T1 sequence (P27958 1027-1657 C1454S): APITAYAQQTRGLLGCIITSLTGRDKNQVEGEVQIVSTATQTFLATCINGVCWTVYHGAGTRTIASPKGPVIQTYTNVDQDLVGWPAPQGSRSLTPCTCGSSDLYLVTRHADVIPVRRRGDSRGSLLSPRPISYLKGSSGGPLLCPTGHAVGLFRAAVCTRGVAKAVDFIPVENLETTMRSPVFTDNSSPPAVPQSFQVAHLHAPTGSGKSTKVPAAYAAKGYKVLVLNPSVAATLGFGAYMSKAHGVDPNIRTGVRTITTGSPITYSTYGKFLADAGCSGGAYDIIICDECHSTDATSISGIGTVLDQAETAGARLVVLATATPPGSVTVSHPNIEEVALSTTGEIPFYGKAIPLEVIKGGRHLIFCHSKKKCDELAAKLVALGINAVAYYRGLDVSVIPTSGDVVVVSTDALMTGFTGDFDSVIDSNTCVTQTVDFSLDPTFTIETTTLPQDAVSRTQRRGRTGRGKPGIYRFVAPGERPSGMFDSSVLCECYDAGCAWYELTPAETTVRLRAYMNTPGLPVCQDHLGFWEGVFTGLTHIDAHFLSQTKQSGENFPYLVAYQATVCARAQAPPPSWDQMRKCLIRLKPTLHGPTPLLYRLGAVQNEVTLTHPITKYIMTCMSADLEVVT
T1 sequence (P27958 1658-1714 partner, looked up, stated change not applied): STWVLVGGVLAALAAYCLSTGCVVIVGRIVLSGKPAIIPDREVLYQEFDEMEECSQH

A word on the IC50: it is the concentration that gives 50% inhibition. With `CC(C)(C)OC(=O)N[C@H]1CCCCC/C=C\[C@@H]2C[C@@]2(C(=O)NS(C)(=O)=O)NC(=O)[C@@H]2C[C@@H](Oc3nccc4ccccc34)CN2C1=O` [Compound 2, [18-(Isoquinolin-1-yloxy)-4-methanesulfonylaminocarbonyl-2,15-dioxo-3,16-diaza-tricyclo[14.3.0.0^4,6]nonadec-7-en-14-yl]-carbamic acid tert-butyl ester], the IC50 in assay [1] worked out at 4.2 nM.

As a reminder, the EC50 is the concentration giving half of the maximal effect. As for `COc1ccc2c(OC3CC4C(=O)NC5(C(=O)NS(=O)(=O)C6CC6)CC5C=CCOCCCC(NC(=O)OC(C)(C)C)C(=O)N4C3)nccc2c1` (stereo not drawn) [Compound 28, [4-Cyclopropanesulfonylaminocarbonyl-18-(6-methoxy-isoquinolin-1-yloxy)-2,15-dioxo-10-oxa-3,16-diaza-tricyclo[14.3.0.0^4,6]nonadec-7-en-14-yl]-carbamic acid tert-butyl ester], in the assay with HCV replicon (setting [2]), the “combination effect with Intron A (Interferon alfa-2b)” value is recorded as “either synergistic or additivity effects; also recorded: no drug antagonism”. Moreover, the “combination effect with the HCV NS5A inhibitor” value with HCV replicon (setting [2]) was “Synergy or additivity; also recorded: no drug antagonism”. For the same molecule, the EC50 in the assay on HCV replicon (Hepatitis C virus, Table 9 (combinations with an NS5A inhibitor)) turned out to be 9 nM; in the assay with HCV replicon (Table 9 (combinations with an NS5A inhibitor)), 11 nM; in the assay on HCV replicon (Table 8 (combinations with Interferon alfa-2b)), 10 nM.
